From patent publication EP0148431A1, “Benzimidazoles, their preparation, and medicaments containing these compounds” (Dr. Karl Thomae GmbH, priority 1983, dated 1985)
Like-named read-outs stand apart in the source and are kept apart here.

Test system: narkotisierten Katze
Details: anaesthetised cats (pentobarbital sodium 40 mg/kg i.p.), mean of at least 3 cats
Procedure: Beispielsweise wurden die Verbindungen • A = 2-(2-Methoxy-4-methylsulfonyl-phenyl)-5-cyano-benzimidazol und • B = 2-(2-Methoxy-4-propargyloxy-phenyl)-5-cyano-benzimidazol auf ihre biologischen Eigenschaften wie folgt untersucht: • Bestimmung der Blutdruckwirkung und der positiv inotropen Wirkung an der narkotisierten Katze
Die Untersuchungen wurden an Katzen durchgeführt, die mit Pentobarbital-Natrium (40 mg/kg i.p.) narkotisiert waren. Die Tiere atmeten spontan. Der arterielle Blutdruck wurde in der Aorta abdominalis mit einem Statham-Druckwandler (P 23 Dc) gemessen. Für die Erfassung der positiv inotropen Wirkung wurde mit einem Kathetertipmanometer (Millar PC-350 A) der Druck in der linken Herzkammer gemessen. Daraus wurde der Kontraktilitätsparameter d^p/dtmax mittels eines Analogdifferenzierers gewonnen. Die zu untersuchenden Substanzen wurden in eine Vena femoralis injiziert. Als Lösungsmittel diente Polydiol 200. Jede Substanz wurde an mindestens 3 Katzen geprüft.

| Compound | Zunahme von dp/dtmax in % (0,2 mg/kg i.v.) [%] | Zunahme von dp/dtmax in % (0,6 mg/kg i.v.) [%] | Zunahme von dp/dtmax in % (2,0 mg/kg i.v.) [%] |
| --- | --- | --- | --- |
| COc1cc(S(C)(=O)=O)ccc1-c1nc2ccc(C#N)cc2[nH]1 [A, 2-(2-Methoxy-4-methylsulfonyl-phenyl)-5-cyano-benzimidazol] | 51 | 96 | 79 |
| C#CCOc1ccc(-c2nc3ccc(C#N)cc3[nH]2)c(OC)c1 [B, 2-(2-Methoxy-4-propargyloxy-phenyl)-5-cyano-benzimidazol] | 33 | 48 | 85 |
